# Test results from patent US6534516B1, “Androgen receptor modulator compounds and methods” (Ligand Pharmaceuticals Incorporated, priority 1996, dated 2003).
# Where two headings read alike, the source gives them in different places.
# Columns and labels:
# [1] = system: immature castrated male rat; assay: Immature castrated male rat model with testosterone silastic implant, ventral prostate and seminal vesicle weights; type: in vivo; settings: for ED50: Rattus norvegicus, po, 72 h; for Seminal Vesicles weight / Ventral Prostate weight: 3 days
# Text: The activity of selected compounds of the present invention as AR antagonists was *~ investigated in an immature castrated male rat model. A recognized test of the antiandrogen activity of a given compound, as described in L. G. Hershberger et al., 83 Proc. Soc. Exptl. […] Similar approaches have been used in the rat and in hamsters. […] Dermatol.
# The basis of this assay is the fact that male sexual accessory organs, such as the prostate and seminal vesicles, play an important role in reproductive function. […] See F. Labrie et al., 16 Clin. Invest. […] However, this is not a major pathway since, in both animals and humans, castration without concomitant adrenalectomy leads to almost complete involution of the prostate and seminal vesicles. […] See M. C. […] Since the male sex organs are the tissues most responsive to modulation by androgen activity, this model is used to determine the androgen-dependent growth of the sex accessory organs in immature castrated rats.
# Immature male rats (50-60 g, 21 day-old Sprague-Dawley, Harlan) were castrated under metofane anesthesia. […] As a negative control, a group of castrated animals received empty 10 mm silastic implants. Animal groups were dosed for 3 days by oral gavage as follows:
# At the end of the 3-day treatment, the animals were sacrificed, and the ventral prostates and seminal vesicles were collected and weighed. Organ weight data were normalized to body weight of each animal and expressed as mg/100 g body weight. Results were analyzed by analysis of variance followed by the Dunnett's test. Data were transformed to comply with the normality and variance homogeneity criteria required to utilize the analysis of variance and Dunnett's test. The following data transformations were used for the ventral prostate and seminal vesicle: square root and power 0.7 respectively. Thereafter, the data were fitted to a four-parameter logistic equation and potencies derived from the fitted estimates. The same data transformations were used for the equation-fitting phase of the data analysis.
# The gain and loss of sexual organ weights reflect the changes of cell number (DNA content) and cell mass (protein content), depending upon the serum androgen concentrations. […] Therefore, measurement of organ wet weights is sufficient to indicate the bioactivity of androgens and androgen antagonists.
# MR = target: T1, MR (Homo sapiens, UniProt P08235); assay: Co-transfection assay, cross-reactivity on MR; type: cell-based
# T1 construct: expressed in transfected cells
# T1 sequence (P08235 1-984): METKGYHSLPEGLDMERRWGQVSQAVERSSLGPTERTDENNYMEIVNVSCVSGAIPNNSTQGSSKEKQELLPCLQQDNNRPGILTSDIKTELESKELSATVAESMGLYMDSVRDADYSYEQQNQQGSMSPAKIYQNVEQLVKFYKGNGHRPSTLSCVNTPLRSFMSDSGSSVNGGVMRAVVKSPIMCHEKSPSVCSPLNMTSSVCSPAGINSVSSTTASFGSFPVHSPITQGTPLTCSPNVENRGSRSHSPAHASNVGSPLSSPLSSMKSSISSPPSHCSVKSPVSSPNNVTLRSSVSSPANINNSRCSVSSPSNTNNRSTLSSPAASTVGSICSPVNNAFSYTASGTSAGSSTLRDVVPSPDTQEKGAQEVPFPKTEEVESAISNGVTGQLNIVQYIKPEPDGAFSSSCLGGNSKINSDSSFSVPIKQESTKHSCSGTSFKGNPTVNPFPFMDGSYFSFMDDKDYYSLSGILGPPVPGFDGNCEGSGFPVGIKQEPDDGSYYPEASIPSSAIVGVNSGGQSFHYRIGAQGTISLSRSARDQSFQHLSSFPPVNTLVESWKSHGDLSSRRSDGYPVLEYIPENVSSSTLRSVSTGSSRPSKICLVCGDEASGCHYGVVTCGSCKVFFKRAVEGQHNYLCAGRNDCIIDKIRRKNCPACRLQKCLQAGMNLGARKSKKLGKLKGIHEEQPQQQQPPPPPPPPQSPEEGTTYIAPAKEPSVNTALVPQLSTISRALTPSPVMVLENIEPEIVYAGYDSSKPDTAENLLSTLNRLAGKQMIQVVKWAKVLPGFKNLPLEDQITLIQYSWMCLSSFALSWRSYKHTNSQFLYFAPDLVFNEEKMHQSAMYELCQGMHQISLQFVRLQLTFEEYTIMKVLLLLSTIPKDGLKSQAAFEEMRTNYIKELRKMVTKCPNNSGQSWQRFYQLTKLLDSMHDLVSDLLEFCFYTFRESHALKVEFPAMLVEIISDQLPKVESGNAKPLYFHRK
# human AR = target: T2, human AR (Homo sapiens, UniProt P10275); assay: cell-based; settings: read-out: AR Binding Ki
# T2 construct: expressed in transfected cells; host or cells: CV-1 cells (African green monkey kidney fibroblasts)
# T2 sequence (P10275 1-920): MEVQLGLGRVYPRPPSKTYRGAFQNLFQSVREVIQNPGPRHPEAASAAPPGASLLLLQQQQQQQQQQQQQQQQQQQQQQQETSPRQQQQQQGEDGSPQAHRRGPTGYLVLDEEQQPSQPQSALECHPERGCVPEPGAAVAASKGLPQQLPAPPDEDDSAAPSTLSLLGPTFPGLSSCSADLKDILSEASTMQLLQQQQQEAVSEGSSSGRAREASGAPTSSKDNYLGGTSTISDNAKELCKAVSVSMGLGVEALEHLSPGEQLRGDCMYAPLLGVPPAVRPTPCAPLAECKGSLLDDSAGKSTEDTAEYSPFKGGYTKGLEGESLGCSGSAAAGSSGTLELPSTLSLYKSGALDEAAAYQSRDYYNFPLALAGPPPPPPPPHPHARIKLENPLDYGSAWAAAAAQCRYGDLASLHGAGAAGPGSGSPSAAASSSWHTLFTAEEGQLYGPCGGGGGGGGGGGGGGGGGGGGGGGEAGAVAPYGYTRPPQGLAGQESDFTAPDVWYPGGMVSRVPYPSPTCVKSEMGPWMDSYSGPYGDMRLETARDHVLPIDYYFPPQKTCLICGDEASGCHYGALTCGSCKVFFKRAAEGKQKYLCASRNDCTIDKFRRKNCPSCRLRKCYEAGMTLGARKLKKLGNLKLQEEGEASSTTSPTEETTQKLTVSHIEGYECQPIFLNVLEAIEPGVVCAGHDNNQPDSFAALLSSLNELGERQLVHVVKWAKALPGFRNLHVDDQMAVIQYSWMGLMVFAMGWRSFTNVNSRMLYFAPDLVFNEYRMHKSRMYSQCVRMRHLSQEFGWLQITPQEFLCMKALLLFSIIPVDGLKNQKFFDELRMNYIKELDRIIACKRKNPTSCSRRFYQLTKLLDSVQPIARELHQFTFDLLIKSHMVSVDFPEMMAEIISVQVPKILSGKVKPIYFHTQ
structure (smiles),measurement,setting,value
"CC1(C)CCc2cc3c(C(F)(F)F)c(F)c(=O)[nH]c3cc2N1 [Compound 105, 7-Fluoro-1,2,3,4-tetrahydro-2,2-dimethyl-6-trifluoromethyl-8-pyridono[5,6-g]quinoline]",suppression of seminal vesicle weight relative to castrate levels (in words),[1]; 30 mg/kg,complete suppression to castrate levels
same,suppression of ventral prostate weight relative to castrate levels (in words),[1]; 30 mg/kg,suppresses ventral prostate weight to castrate levels
same,ED50,"[1]; read-out: Potency (ED50) Weighted Average ± SE, Seminal Vesicle Weight",7.5 ± 1.3 mg/kg
same,ED50,"[1]; read-out: Potency (ED50) Weighted Average ± SE, Ventral Prostate Weight",3.1 ± 0.7 mg/kg
same,Seminal Vesicles weight,[1]; T implant + 0.1 mg/kg oral,28.1 ± 3.6 (5) mg/100 g body weight
same,Ventral Prostate weight,[1]; T implant + 0.1 mg/kg oral,74.8 ± 5.4 (5) mg/100 g body weight
same,Seminal Vesicles weight,[1]; T implant + 1 mg/kg oral,27.4 ± 1.7 (5) mg/100 g body weight
same,Ventral Prostate weight,[1]; T implant + 1 mg/kg oral,63.6 ± 6.6 (5) mg/100 g body weight
same,Seminal Vesicles weight,[1]; T implant + 3 mg/kg oral,24.9 ± 0.9 (5) mg/100 g body weight
same,Ventral Prostate weight,[1]; T implant + 3 mg/kg oral,48.4 ± 6.6 (5) mg/100 g body weight
same,Seminal Vesicles weight,[1]; T implant + 10 mg/kg oral,15.2 ± 0.3 (5) mg/100 g body weight
same,Ventral Prostate weight,[1]; T implant + 10 mg/kg oral,40.0 ± 1.3 (5) mg/100 g body weight
same,Seminal Vesicles weight,[1]; T implant + 30 mg/kg oral,7.1 ± 1.4 (5) mg/100 g body weight
same,Ventral Prostate weight,[1]; T implant + 30 mg/kg oral,24.6 ± 2.0 (5) mg/100 g body weight
same,Seminal Vesicles weight,[1]; T implant + 100 mg/kg oral,7.6 ± 1.4 (5) mg/100 g body weight
same,Ventral Prostate weight,[1]; T implant + 100 mg/kg oral,23.6 ± 2.2 (5) mg/100 g body weight
same,IC50,MR,2260 nM
same,Ki,human AR,21 ± 11 nM
